# Tests used:
# Set-up in all cases: host or cells: CHO cells, stably transfected
# M2 muscarinic receptor = target: T1, M2 muscarinic receptor (Homo sapiens, UniProt P08172); test: [3H]NMS competition binding, M2 CHO membranes; conditions: Inhibition constants (KI) as negative logarithms, reference agonists
# T1 sequence (P08172 1-466): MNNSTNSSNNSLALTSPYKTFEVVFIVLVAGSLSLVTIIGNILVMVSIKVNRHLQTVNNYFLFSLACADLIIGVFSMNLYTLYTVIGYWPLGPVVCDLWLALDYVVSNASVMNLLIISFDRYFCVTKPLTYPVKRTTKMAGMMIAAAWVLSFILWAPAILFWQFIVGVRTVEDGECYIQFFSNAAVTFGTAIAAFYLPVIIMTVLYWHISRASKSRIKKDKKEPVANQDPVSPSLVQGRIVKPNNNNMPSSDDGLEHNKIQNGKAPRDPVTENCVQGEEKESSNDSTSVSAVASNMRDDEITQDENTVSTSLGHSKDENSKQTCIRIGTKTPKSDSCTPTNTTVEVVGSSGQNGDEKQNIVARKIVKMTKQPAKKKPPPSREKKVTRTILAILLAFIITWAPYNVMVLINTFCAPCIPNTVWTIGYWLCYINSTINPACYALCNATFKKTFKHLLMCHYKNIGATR
# M4 muscarinic receptor = target: T2, M4 muscarinic receptor (Homo sapiens, UniProt P08173); test: inhibition of forskolin-stimulated cAMP, M4 CHO cells (M4Gi); assay type: cell-based
# T2 sequence (P08173 1-479): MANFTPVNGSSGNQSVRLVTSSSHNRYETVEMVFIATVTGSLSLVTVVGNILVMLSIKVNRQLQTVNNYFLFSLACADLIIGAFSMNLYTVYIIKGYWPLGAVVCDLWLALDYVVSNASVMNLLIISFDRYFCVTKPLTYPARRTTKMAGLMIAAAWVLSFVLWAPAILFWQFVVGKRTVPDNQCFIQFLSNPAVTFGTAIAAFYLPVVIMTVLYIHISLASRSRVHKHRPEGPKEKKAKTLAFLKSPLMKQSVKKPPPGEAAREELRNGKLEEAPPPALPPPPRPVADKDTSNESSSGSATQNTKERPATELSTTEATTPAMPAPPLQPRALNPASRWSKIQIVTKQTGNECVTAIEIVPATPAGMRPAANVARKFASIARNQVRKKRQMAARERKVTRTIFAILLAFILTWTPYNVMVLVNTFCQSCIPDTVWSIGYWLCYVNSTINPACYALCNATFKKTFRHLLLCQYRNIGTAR
# M5 muscarinic receptor = target: T3, M5 muscarinic receptor (Homo sapiens, UniProt P08912); test: accumulation of IPX, M5 CHO cells (M5Gq); assay type: cell-based
# T3 sequence (P08912 1-532): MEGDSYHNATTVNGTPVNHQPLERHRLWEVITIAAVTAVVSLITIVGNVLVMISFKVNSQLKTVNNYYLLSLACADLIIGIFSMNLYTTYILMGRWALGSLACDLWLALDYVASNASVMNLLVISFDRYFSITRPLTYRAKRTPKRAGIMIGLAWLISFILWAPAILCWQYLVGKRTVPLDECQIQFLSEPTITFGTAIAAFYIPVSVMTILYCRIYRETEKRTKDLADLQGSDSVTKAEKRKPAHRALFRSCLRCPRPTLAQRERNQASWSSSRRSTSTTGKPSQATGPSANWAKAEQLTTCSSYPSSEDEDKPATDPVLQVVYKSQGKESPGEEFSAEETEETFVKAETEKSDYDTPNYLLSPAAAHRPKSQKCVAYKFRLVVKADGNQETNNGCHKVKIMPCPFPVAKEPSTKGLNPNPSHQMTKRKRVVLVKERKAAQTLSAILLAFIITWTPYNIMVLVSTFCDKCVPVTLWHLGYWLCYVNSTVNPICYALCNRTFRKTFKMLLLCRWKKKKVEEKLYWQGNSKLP
smiles,measurement,setting,value
"O=C1CCCN1CC#CCN1CCCC1 [oxotremorine, reference compound]",Ki,"M2 muscarinic receptor; M2, high site, high affinity site",0.0126 µM
same,Ki,"M2 muscarinic receptor; M2, low site, low affinity site",0.575 µM
same,Kd,M4 muscarinic receptor,0.0316 µM
same,Emax,M4 muscarinic receptor; CHO,48 ± 2%
same,pEC50,"M4 muscarinic receptor; M4 (↓cAMP), preferential response, Table 7",7.85 ± 0.04
same,τ,"M4 muscarinic receptor; M4 (↓cAMP), preferential response, Table 7, operational efficacy",1.17 ± 0.08
same,RAi,"M4 muscarinic receptor; M4 (↓cAMP), preferential response, relative to carbachol, Tables 2, 3, 7",3.81 ± 0.16
same,Δlog(τ/KA),"M4 muscarinic receptor; M4 (↓cAMP), preferential response, to carbachol, Tables 2, 3, 7",−0.62 ± 0.08
same,E′MAX,"M4 muscarinic receptor; M4Gi (↓cAMP), Table 8",48 ± 2 % inhibition
same,pEC50,"M4 muscarinic receptor; M4Gi (↓cAMP), Table 8",7.85 ± 0.04
same,pKA,"M4 muscarinic receptor; M4Gi (↓cAMP), Table 8",7.5 ± 0.1
same,τ,"M4 muscarinic receptor; M4Gi (↓cAMP), Table 8",1.2 ± 0.1
same,RAi,"M4 muscarinic receptor; M4Gi (↓cAMP), Table 8, relative to carbachol",3.81 ± 0.16
same,Δlog(τ/KA),"M4 muscarinic receptor; M4Gi (↓cAMP), Table 8, to carbachol",−0.62 ± 0.08
same,Kd,M5 muscarinic receptor,0.251 µM
same,E′MAX,"M5 muscarinic receptor; M5 (↑IPX), preferential response, Table 7",16 ± 1 fold over basal
same,τ,"M5 muscarinic receptor; M5 (↑IPX), preferential response, Table 7, operational efficacy",2.60 ± 0.30
same,RAi,"M5 muscarinic receptor; M5 (↑IPX), preferential response, relative to carbachol, Tables 2, 3, 7",4.12 ± 0.26
same,Δlog(τ/KA),"M5 muscarinic receptor; M5 (↑IPX), preferential response, to carbachol, Tables 2, 3, 7",−0.62 ± 0.07
same,E′MAX,"M5 muscarinic receptor; M5Gq (↑IPX), Table 8",16 ± 1 fold over basal
same,pKA,"M5 muscarinic receptor; M5Gq (↑IPX), Table 8",6.6 ± 0.1
same,τ,"M5 muscarinic receptor; M5Gq (↑IPX), Table 8",2.2 ± 0.3
same,RAi,"M5 muscarinic receptor; M5Gq (↑IPX), Table 8, relative to carbachol",4.37 ± 0.29
same,Δlog(τ/KA),"M5 muscarinic receptor; M5Gq (↑IPX), Table 8, to carbachol",−0.64
same,EC50,"M5 muscarinic receptor; pEC50, M5 (↑IPX), preferential response, Table 7",0.0708 µM
same,EC50,"M5 muscarinic receptor; pEC50, M5Gq (↑IPX), Table 8",0.0741 µM
